# Reference: patent US20130196000A1, “COMBINATION THERAPY INCLUDING ISOPHO[…], ANALOGS, OR SALTS THEREOF” (ZIOPHARM ONCOLOGY, INC., priority 2012, published 2013)
# Test: Multicenter phase Ib open-label dose-escalation study of IPM-tris plus carboplatin/etoposide (PaCE): safety, DLT and MTD
# Type: in vivo, human
# Description: A multicenter phase I, open-label, dose-escalation study assessing the safety and efficacy of IPM-tris in combination with carboplatin (C) and etoposide (E) (PaCE regimen) in SCLC and in other cancers in which C+E is considered appropriate was conducted. Tumor responses were assessed by RECIST 1.1 and relevant tumor markers.
# To be eligible, each subject met each of the following criteria: (i) age >18 years; (ii) subject with documentation of a malignancy scheduled to receive etoposide and carboplatin therapy (including, but not limited to testicular cancer, thymoma, ovarian cancer, osteosarcoma, non-small cell lung cancer, and small cell lung cancer); (iii) ECOG Performance Status of 0 or 1; (iv) adequate bone marrow, liver, and renal function, as assessed by the following laboratory requirements conducted within 14 days prior to dosing; and (v) subjects for whom there is no curative standard therapy.
# IPM tris(hydroxymethyl)methylammonium salt (IPM-tris) was given by intravenous (IV) infusion over approximately 30 minutes on days 1, 2, and 3 of each 21 day cycle. Each IPM-tris infusion to a subject was completed within 1 hour (and not more than 90 minutes) of dose preparation in the IV bag. Etoposide was given by IV infusion over approximately 60 minutes on days 1, 2, and 3 of each 21 day cycle. Carboplatin was given by IV infusion over approximately 30 minutes on day 1 of each 21 day cycle.
# Each vial of IPM-tris was reconstituted with 14.6% sodium chloride for Injection, to a final concentration of 50.0 mg per mL. If the 14.6% sodium chloride diluent was not available, sites used 5.0%, 5.7%, 8.5%, or 0.9% sodium chloride for injection as the reconstitution diluent according to the same reconstitution instructions. Other standard sodium chloride solutions commercially available in other countries can be used to reconstituted IPM-tris. The IV infusion of IPM-tris was completed within 2.5 hours of reconstitution in the vial.
# The doses of IPM-tris, etoposide, and carboplatin for each subject were calculated by the pharmacist based on the dose level and the subject's body surface area (BSA) on the first day of each cycle. BSA was calculated using their Institutional guidelines for calculating BSA or, the calculation for BSA by the Mosteller formula was used (note: SQRT=square root): […]
# The maximum tolerable dose (MTD) of IPM-tris when administered in combination with etoposide and carboplatin at fixed doses (90 mg/m^2 and AUC 4, respectively) was determined An additional dose cohort was also evaluated using an escalated dose level of etoposide (100 mg/m^2) in combination with the IPM-tris MTD and carboplatin (AUC 4). Once the recommended doses were determined, this combination regimen was further studied in subjects with small cell lung cancer.
smiles,measurement,setting,value
"NC(CO)(CO)CO.O=P(O)(NCCCl)NCCCl [IPM-tris, IPM tris(hydroxymethyl)methylammonium salt]",patients with dose limiting toxicity (neutropenic fever),at 150 mg/m^2 of IPM-tris,one
same,maximum tolerated dose of IPM-tris,"in combination with etoposide 90 mg/m^2 and carboplatin AUC 4 (Cohort 2), IV days 1, 2, 3 of 21 day cycle","**Based on dose escalation cohorts completed prior to Amendment 6, the maximum tolerated dose of IPM-tris was determined to be 130 mg/m^2 when administered in combination with etoposide 90 mg/m^2 and carboplatin AUC 4 (Cohort 2)."
same,maximum tolerated dose of IPM-tris,in combination with etoposide 100 mg/m^2 and carboplatin AUC 4,130 mg/m^2
same,IPM-tris dosage found to result in DLT,in combination with etoposide and carboplatin,150 mg/m^2/day
